Experiment [1] deals with A2780. Briefly: Cell proliferation assay (CELL TITER GLO), A2780. It counts as cell-based. To be noted: Homo sapiens, 168 h; A2780 ovarian cancer, seven days after compound addition. How it is done:
(§1) Cell lines are plated at the density 5000 cells per well in 100 µL per well growth medium into a white 96-well cell culture plate. See Table 1 for cell line and culture medium information. Plates are incubated at 37° C. and 5% CO2. The following day, a serial dilution of the test compound is prepared by diluting the compound 1:3 in DMSO for 10 points. The DMSO plate is 1000X the final concentration. In addition to the CDK7 inhibitor, a DMSO alone column is included as a maximum growth control and 10 µM staurosporine final column is included as a maximum growth inhibition control. A 10X dilution plate is then prepared by adding 2 µL per well from the 1000X DMSO plate to 198 µL per well of OMEM (Life Technologies, Carlsbad, CA, cat#31985-070). Cells are treated with indicated compound by adding 11 µL per well from the 10X OMEM plate to the cell plate containing 100 µL per well growth medium for a 1X final concentration. Plates are placed back into the incubator at 37° C. and 5% CO2. Six or seven days after compound addition, for HCC1806 or A2780 cells respectively, plates are removed from the incubator and allowed to equilibrate to RT. […] After 15 minute incubation on shaker, luminescence is read, 1 second per well, using a Wallac VICTOR2™. […]
On the technique in general: Cellular ATP, detected with luciferase, serves as a proxy for viable cell number.

The test system of experiment [2] is HCC1806. Briefly: Cell proliferation assay (CELL TITER GLO), HCC1806. To be noted: Homo sapiens, 144 h; HCC1806 breast cancer, six days after compound addition. It counts as cell-based. As to the method: as §1
The subject of experiment [3] is HCC1806 xenograft tumor model. Briefly: Xenograft tumor model. The format is in vivo, female athymic nude mice. To be noted: QDx28, HCC1806 (KMT2C). As to the method:
The purpose of this assay is to measure reduction in tumor volume in response to the compound of Example 1. To evaluate in vivo efficacy of a test compound, multiple xenograft tumor models are utilized. Briefly, 2.5 × 10^6 tumor cells in a 1:1 MATRIGEL® mix (0.2 mL total volume) are injected subcutaneously into the female athymic nude mice (Envigo, Harlan Laboratories). After allowing tumors to reach a desired size of ~300-500 mm^3, animals are randomized into groups of 5 for efficacy studies. Test compound is administered via oral gavage (PO) at indicated doses and regimens. Tumor growth and body weight are monitored over time to evaluate efficacy and signs of toxicity.
Test compound is formulated in 1% hydroxyethylcellulose, 0.25% polysorbate 80, 0.05% antifoam in purified water (HEC) and administered by oral gavage (final volume 0.2 mL) at the doses indicated in Table 2. A test compound is formulated on a weekly basis and stored at 4° C. Vehicles are administered to the control groups according the schedules used above using a volume of 0.2 mL per dose. Mice are dosed via oral gavage and tumor samples are collected at termination and stored at -80° C.
Tumor size and body weight are recorded and analyzed bi-weekly.
Delta T/C% is calculated when the endpoint tumor volume in a treated group is at or above baseline tumor volume. The formula is 100×(T-T0)/(C-C0). […]

The target in experiment [4] is T1, CDK7 (Homo sapiens, UniProt P50613).
T1 construct: purchased DiscoverX Corporation (KINOMEscan service)
T1 sequence (P50613 whole entry): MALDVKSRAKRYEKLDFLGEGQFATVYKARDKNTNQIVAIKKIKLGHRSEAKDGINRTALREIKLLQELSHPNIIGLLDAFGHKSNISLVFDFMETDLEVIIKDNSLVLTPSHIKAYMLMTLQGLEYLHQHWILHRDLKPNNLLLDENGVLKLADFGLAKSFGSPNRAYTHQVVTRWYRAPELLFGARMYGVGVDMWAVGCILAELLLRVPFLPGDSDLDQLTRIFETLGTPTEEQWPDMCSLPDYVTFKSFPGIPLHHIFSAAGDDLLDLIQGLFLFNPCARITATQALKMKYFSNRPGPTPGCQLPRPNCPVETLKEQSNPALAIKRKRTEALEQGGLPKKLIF
In words: DiscoverX KINOMEscan competition binding, CDK7. The note with it: 0.2 µM compound. How it is done:
The purpose of the study is to generate an in vitro selectivity profile of the compounds of Example 8. To address selectivity, the compound of Example 8 is tested in a panel of 468 human kinases at DiscoverX Corporation using the KINOMEscan™ screening platform. KINOMEscan™ employs a novel and proprietary active site-directed competition binding assay to quantitatively measure interactions between test compounds and more than 450 human kinases and disease relevant mutant variants.
Compounds that bind the kinase active site and directly (sterically) or indirectly (allosterically) prevent kinase binding to an immobilized ligand, will reduce the amount of kinase captured on the solid support. […] Compound activity is monitored by measuring the amount of kinase captured in test versus control samples by using a qPCR method that detects the associated DNA label. Further information regarding the DiscoverX Corporation KINOMEscan™ screening platform can be found at http://www.discoverx.com.
Assays to monitor binding to a 468 kinase panel were conducted at DiscoverXⓇ Corporation (Fremont, CA). Example 8 is tested at 20 µM, 2 µM, and 0.2 µM final concentrations. Kinases are tagged with DNA for qPCR detection. […] The kinase concentration in the eluates is measured by qPCR. […]

In general, IC50 refers to the concentration needed to halve the response being measured. Higher therefore signals lower potency. For `C=CC(=O)N1CCO[C@H](CN2CCC(Nc3cc(C(C)F)cn4c(C(C)C)cnc34)CC2)C1` (single isomer, unassigned) [Example 1], the IC50 is 22.8 nM in experiment [1] and 19.5 nM in experiment [2]. The “Avg. ΔT/C” value is 16.5% in experiment [3] (10 mg/kg PO) and -38.0% in experiment [3] (20 mg/kg PO).

A word on the inhibition: it is the change of the read-out against control, counted positive when it falls. For `C=CC(=O)N1CCO[C@H](CN2CCC(Nc3cc(C(F)(F)F)cn4c(C(C)C)cnc34)CC2)C1` [Example 8, 1-[(2R)-2-[[4-[[3-isopropyl-6-(trifluoromethyl)imidazo[1,2-a]pyridin-8-yl]amino]-1-piperidyl]methyl]morpholin-4-yl]prop-2-en-1-one], the remaining binding at 0.2 µM in experiment [4] (read-out: % control activity against CDK7) was around 4%. Also, the inhibition at 0.2 µM in experiment [4] (read-out: inhibition against CDK7) is around 96%.

For the origin of these results see patent publication US20230203031A1, “COMPOUNDS USEFUL FOR INHIBITING CDK7” (Eli Lilly and Company, priority 2020, published 2023).
